Calls of active or inactive are those of the source. No cut-off for these calls is given here.
Experiments:
Estrogen receptor beta = Estrogen receptor beta (Homo sapiens, UniProt Q92731); assay: Agonist activity at estrogen receptor beta (unknown origin)
[1] = Drug recovery in ileum of male Sprague-Dawley rat at 4.5 mg/kg, po administered as C14-lableled compound and assessed as radioactivity and measured at 6 hrs; format: ADME, organism-based; conditions: in vivo
[2] = Drug recovery in liver of male Sprague-Dawley rat at 4.5 mg/kg, po administered as C14-lableled compound and assessed as radioactivity and measured at 6 hrs; format: ADME, organism-based; conditions: in vivo
[3] = Clearance in male Sprague-Dawley rat at 1 mg/kg, iv measured by LC-MS/MS analysis; format: ADME, organism-based; conditions: in vivo
[4] = Drug recovery in heart of male Sprague-Dawley rat at 4.5 mg/kg, po administered as C14-lableled compound and assessed as radioactivity and measured at 0.25 hrs; format: ADME, organism-based; conditions: in vivo
Mus musculus [5] = assay: Antifibrotic activity in C57BL/6 mouse model of CCI4-induced liver fibrosis assessed as reduction in fibrosis area at 1 mg/kg, po administered once daily for 4 weeks; format: functional, organism-based
[6] = Toxicity in po dosed Sprague-Dawley rat assessed as maximum tolerated dose; format: organism-based; conditions: in vivo
[7] = Mutagenecity in Salmonella typhimurium TA100 measured by Ames test; format: toxicity; conditions: salmonella enterica subsp. enterica serovar typhimurium
[8] = Drug recovery in stomach of male Sprague-Dawley rat at 4.5 mg/kg, po administered as C14-lableled compound and assessed as radioactivity and measured at 1 hr; format: ADME, organism-based; conditions: in vivo
[9] = Drug recovery in skin of male Sprague-Dawley rat at 4.5 mg/kg, po administered as C14-lableled compound and assessed as radioactivity and measured at 1 hr; format: ADME, organism-based, Skin of body; conditions: in vivo
[10] = Drug recovery in spleen of male Sprague-Dawley rat at 4.5 mg/kg, po administered as C14-lableled compound and assessed as radioactivity and measured at 6 hrs; format: ADME, organism-based; conditions: in vivo, BLD = below limit of detection
[11] = biological target: T1, Bile acid receptor (Rattus norvegicus) (UniProt Q62735); assay: In vivo activation of FXR in male Sprague-Dawley rat assessed as fold increase in liver BSEP level at 5 mg/kg, po administered as single dose measured at 1 hr by RT-qPCR assay; format: functional, organism-based
T1 sequence (whole entry): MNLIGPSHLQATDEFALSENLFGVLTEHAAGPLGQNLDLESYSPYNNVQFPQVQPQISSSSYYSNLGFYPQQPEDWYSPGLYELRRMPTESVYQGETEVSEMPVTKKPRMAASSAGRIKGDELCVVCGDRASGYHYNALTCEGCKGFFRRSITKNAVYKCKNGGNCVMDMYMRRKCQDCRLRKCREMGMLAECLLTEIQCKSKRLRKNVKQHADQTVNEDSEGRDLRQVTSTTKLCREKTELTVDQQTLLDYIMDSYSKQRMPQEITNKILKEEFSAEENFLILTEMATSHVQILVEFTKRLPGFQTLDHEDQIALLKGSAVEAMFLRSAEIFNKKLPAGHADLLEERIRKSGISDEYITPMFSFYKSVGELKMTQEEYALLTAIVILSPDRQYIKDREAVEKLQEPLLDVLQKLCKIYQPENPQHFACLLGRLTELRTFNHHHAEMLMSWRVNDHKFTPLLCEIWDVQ

[12] = Half-life in male Beagle dog at 1 mg/kg, iv measured by LC-MS/MS analysis; format: ADME, organism-based, Canis lupus familiaris; conditions: in vivo
[13] = Drug recovery in kidney of male Sprague-Dawley rat at 4.5 mg/kg, po administered as C14-lableled compound and assessed as radioactivity and measured at 24 hrs; format: ADME, organism-based; conditions: in vivo
[14] = Drug recovery in spleen of male Sprague-Dawley rat at 4.5 mg/kg, po administered as C14-lableled compound and assessed as radioactivity and measured at 24 hrs; format: ADME, organism-based; conditions: in vivo, BLD = below limit of detection
Mus musculus [15] = assay: Antifibrotic activity in C57BL/6 mouse model of CCI4-induced liver fibrosis assessed as decrease in serum ALT level at 0.1 to 1 mg/kg, po administered once daily for 4 weeks; format: functional, organism-based; conditions: dose 0.1-1 mg/kg
[16] = biological target: Voltage-gated inwardly rectifying potassium channel KCNH2 (Homo sapiens, UniProt Q12809); assay: Inhibition of hERG; format: toxicity
Chain of Voltage-gated inwardly rectifying potassium channel KCNH2 (Q12809 whole entry): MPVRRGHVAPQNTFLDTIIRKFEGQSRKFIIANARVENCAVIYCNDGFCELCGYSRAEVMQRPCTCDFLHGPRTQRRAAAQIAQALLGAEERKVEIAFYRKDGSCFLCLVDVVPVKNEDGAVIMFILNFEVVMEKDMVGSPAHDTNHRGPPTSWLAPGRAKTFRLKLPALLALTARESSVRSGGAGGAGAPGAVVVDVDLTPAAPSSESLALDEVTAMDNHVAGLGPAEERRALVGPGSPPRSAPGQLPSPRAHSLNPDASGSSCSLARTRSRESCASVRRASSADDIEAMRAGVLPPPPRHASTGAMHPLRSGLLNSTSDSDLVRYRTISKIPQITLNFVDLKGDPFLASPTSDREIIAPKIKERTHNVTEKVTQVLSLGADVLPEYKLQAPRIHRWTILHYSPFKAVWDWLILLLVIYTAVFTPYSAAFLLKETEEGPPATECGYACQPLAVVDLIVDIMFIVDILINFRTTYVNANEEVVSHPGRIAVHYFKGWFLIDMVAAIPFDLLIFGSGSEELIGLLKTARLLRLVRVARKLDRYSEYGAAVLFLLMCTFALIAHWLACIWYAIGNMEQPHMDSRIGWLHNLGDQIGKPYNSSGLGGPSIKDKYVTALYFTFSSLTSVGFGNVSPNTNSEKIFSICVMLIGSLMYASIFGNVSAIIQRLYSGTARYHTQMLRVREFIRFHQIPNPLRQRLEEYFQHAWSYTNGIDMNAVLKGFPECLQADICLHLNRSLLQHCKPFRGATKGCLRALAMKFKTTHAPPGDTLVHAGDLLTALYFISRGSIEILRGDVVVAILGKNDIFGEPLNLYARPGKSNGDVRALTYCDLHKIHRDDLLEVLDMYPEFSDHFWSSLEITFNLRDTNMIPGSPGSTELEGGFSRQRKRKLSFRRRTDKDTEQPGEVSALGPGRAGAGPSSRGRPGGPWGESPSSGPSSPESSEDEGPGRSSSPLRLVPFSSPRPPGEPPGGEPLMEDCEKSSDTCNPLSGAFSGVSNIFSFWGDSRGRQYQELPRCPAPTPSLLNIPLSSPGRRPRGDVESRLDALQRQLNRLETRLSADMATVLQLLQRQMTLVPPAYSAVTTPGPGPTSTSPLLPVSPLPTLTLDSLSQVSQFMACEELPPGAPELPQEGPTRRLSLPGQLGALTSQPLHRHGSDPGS

[17] = Oral bioavailability in male Sprague-Dawley rat at 5 mg/kg measured by LC-MS/MS analysis; format: ADME, organism-based; conditions: in vivo
[18] = Drug recovery in lung of male Sprague-Dawley rat at 4.5 mg/kg, po administered as C14-lableled compound and assessed as radioactivity and measured at 1 hr; format: ADME, organism-based; conditions: in vivo
[19] = Oral bioavailability in male C57BL/6 mouse at 5 mg/kg measured by LC-MS/MS analysis; format: ADME, organism-based; conditions: in vivo
Mus musculus [20] = assay: Anti-NASH activity against high fat (HF) diet-induced nonalcoholic steatohepatitis in leptin-deficient ob/ob mouse model assessed as reduction in serum TG level at 0.1 to 1 mg/kg, po administered once daily from week 5 to 10; format: functional, organism-based; conditions: dose 0.1-1 mg/kg
[21] = Drug recovery in brain of male Sprague-Dawley rat at 4.5 mg/kg, po administered as C14-lableled compound and assessed as radioactivity and measured at 6 hrs; format: ADME, organism-based; conditions: in vivo, BLD = below limit of detection
[22] = biological target: T2, Peroxisome proliferator-activated receptor alpha (Homo sapiens, UniProt Q07869); assay: Agonist activity at PPARalpha (unknown origin)
T2 sequence (Q07869 whole entry): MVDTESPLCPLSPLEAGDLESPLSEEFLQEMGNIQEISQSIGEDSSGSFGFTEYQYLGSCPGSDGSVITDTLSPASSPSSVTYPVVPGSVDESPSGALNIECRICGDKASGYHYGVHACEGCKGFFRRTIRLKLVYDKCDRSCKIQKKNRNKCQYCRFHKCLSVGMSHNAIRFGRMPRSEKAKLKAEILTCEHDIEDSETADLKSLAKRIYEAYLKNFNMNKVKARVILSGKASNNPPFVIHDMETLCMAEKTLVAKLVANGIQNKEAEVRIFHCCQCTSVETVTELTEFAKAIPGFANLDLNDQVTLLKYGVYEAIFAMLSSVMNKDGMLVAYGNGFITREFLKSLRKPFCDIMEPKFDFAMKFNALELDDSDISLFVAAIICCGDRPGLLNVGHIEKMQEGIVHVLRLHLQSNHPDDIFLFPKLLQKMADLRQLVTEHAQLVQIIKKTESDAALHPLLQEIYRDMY

Chain of Estrogen receptor beta (Q92731 whole entry): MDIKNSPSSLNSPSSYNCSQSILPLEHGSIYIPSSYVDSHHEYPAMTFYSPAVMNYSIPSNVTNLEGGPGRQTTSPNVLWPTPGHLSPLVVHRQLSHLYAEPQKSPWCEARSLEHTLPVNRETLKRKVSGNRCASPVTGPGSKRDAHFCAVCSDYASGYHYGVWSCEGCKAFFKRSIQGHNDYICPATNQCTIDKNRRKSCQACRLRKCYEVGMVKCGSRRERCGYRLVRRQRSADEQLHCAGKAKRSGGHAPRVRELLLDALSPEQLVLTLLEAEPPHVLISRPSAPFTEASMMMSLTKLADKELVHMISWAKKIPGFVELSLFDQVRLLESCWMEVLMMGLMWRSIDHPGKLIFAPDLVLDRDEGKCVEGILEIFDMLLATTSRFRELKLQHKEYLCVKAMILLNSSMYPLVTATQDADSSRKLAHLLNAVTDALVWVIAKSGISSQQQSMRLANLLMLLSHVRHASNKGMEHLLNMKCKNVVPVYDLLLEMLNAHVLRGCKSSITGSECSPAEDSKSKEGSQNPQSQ

O=C(O)c1ccc2c(c1)Oc1ccc(OCc3c(-c4c(Cl)cccc4Cl)noc3C3CC3)nc1C1(CC1)C2
EC50 (Estrogen receptor beta): > 10 µM
Drug recovery [1]: 5620 ngequiv/g
Drug recovery [2]: 521 ngequiv/g
clearance [3]: 35.3 mL/min/kg
Drug recovery [4]: 208 ngequiv/g
Activity (Mus musculus [5]): Active
MTD [6]: 2000 mg/kg
Activity [7]: Non-Toxic
Drug recovery [8]: 1536 ngequiv/g
Drug recovery [9]: 117 ngequiv/g
Drug recovery [10]: Bld
fold change (FC) [11]: 2
half-life [12]: 2.97 h
Drug recovery [13]: 74.4 ngequiv/g
Drug recovery [14]: Bld
Activity (Mus musculus [15]): Active
IC50 [16]: > 5.24 µM
bioavailability [17]: 50.8%
Drug recovery [18]: 814 ngequiv/g
bioavailability [19]: 82.5%
Activity (Mus musculus [20]): Active
Drug recovery [21]: Bld
EC50 [22]: > 10 µM

Source: ChEMBL document CHEMBL5154690, “Discovery of a tricyclic farnesoid X receptor agonist HEC96719, a clinical candidate for treatment of non-alcoholic steatohepatitis” (Eur J Med Chem, 2022)
